According to patent US6506781B1, “Oxazole PPAR antagonist” (SmithKline Beecham Corporation, priority 1999, dated 2003):

System: male ZDF/GMI fa/fa rats
Assay: Experimental animal protocol: blood glucose, triglycerides and NEFAs in ZDF rats
Type: in vivo
Conditions: 150 mg/kg twice a day oral gavage, after 2 weeks, non-fasting, mean ± SEM
Method: Experimental Animal Protocol
Age and weight matched male ZDF/GMI fa/fa rats (Genetic Models) were housed at 72 degF. and 50% relative humidity with a 12 hr light and dark cycle. Starting at 8 weeks of age the animals were dosed twice a day by oral gavage with 150 mg/kg of example 2. After 2 weeks the animals were anesthetized with isofluorane, blood drawn by cardiac puncture, and non-fasting measurements of glucose, triglycerides, and non-esterified free fatty acids (NEFAS) were obtained. The data were calculated as the mean and standard error (SEM) from experiments performed on ten animals per treatment group. Two-tailed tests were performed to calculate P values using Excel on a personal computer. This research complied with the principles of laboratory animal care (NIH publication No. […], revised 1985) and company policy on the care and use of animals and related codes of practice.

With CCCc1nnc(C[C@H](Nc2ccccc2C(=O)c2ccccc2)c2ccc(OCCc3nc(-c4ccccc4)oc3C)cc2)o1 [Example 1, (S)-{{2-[1-(2-Benzoylphenyl)amino]-2-{4-[2-(5-methyl-2-phenyloxazol-4-yl)ethoxy]phenyl}ethyl}}-5-propyl-1,3,4-oxadiazole] the “Free Fatty Acids” value (control 1.48 ± 0.09) was 1.14 ± 0.06 mEq/L, the Glucose (control 313 ± 62) was 201 ± 13 mg/dL and the Triglycerides (control 1507 ± 143) was 734 ± 102 mg/dL.
